Results: PubChem BioAssay (NCI)
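A five-concentration, 48-hour dose response in 96-well plates underlies each endpoint, interpolated linearly between surrounding concentrations. GI50 = concentration required for 50% inhibition of growth. TGI denotes the concentration required for complete inhibition of growth.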

Columns and labels:
Assay in all cases: inhibition of tumour cell growth, NCI panel, 48 h
[1] = test system: HCT-15 colon
[2] = test system: EKVX NSCLC
[3] = test system: OVCAR-8 ovarian
[4] = test system: NCI-H23 lung
[5] = test system: LOX IMVI melanoma
[6] = test system: HOP-62 NSCLC
[7] = test system: ACHN renal
[8] = test system: M14 melanoma
[9] = test system: TK-10 renal
[10] = test system: UACC-62 melanoma
[11] = test system: NCI-H226 lung
[12] = test system: HT29 colon
[13] = test system: A498 renal
[14] = test system: SK-MEL-5 melanoma
[15] = test system: SF-539 CNS
[16] = test system: OVCAR-5 ovarian
[17] = test system: NCI-H522 lung
[18] = test system: SF-268 CNS
[19] = test system: HCC-2998 colon
[20] = test system: MALME-3M melanoma
[21] = test system: SK-MEL-28 melanoma
[22] = test system: SK-OV-3 ovarian
[23] = test system: SNB-75 CNS
[24] = test system: MDA-MB-435
[25] = test system: HCT-116 colon
[26] = test system: SK-MEL-2 melanoma
[27] = test system: MOLT-4 leukemia
[28] = test system: PC-3 prostate
[29] = test system: UACC-257 melanoma
[30] = test system: SN12C renal
[31] = test system: OVCAR-4 ovarian
[32] = test system: UO-31 renal
[33] = test system: NCI-H460 lung
[34] = test system: NCI/ADR-RES ovarian
[35] = test system: A549 NSCLC
[36] = test system: SNB-19 CNS
[37] = test system: CCRF-CEM leukemia
[38] = test system: HL-60(TB) leukemia
[39] = test system: MCF7 breast
[40] = test system: T-47D breast
[41] = test system: IGROV1 ovarian
[42] = test system: K-562 leukemia
[43] = test system: SF-295 CNS
[44] = test system: DU-145 prostate
[45] = test system: MDA-MB-231 breast
[46] = test system: OVCAR-3 ovarian
[47] = test system: 786-0 renal
[48] = test system: COLO 205 colon
[49] = test system: CAKI-1 renal
[50] = test system: BT-549 breast
[51] = test system: SW-620 colon
[52] = test system: KM12 colon
[53] = test system: RXF 393 renal
[54] = test system: SR leukemia
[55] = test system: U251 CNS
[56] = test system: HS 578T breast
[57] = test system: HOP-92 NSCLC
[58] = test system: RPMI-8226 leukemia

SMILES: CN1CCN(Cc2ccc(NC(=O)c3cncc(C#Cc4cnc5ccc(OCC(F)F)nn45)c3)cc2C(F)(F)F)CC1
- GI50 [1]: 207 nM
- TGI [1]: 0.909 µM
- GI50 [2]: 0.348 µM
- TGI [2]: 1.02 µM
- GI50 [3]: 705 nM
- TGI [3]: 1.56 µM
- GI50 [4]: 340 nM
- TGI [4]: 1230 nM
- GI50 [5]: 235 nM
- TGI [5]: 838 nM
- GI50 [6]: 0.729 µM
- TGI [6]: 1.64 µM
- GI50 [7]: 482 nM
- TGI [7]: 1.21 µM
- GI50 [8]: 0.167 µM
- TGI [8]: 0.619 µM
- GI50 [9]: 0.749 µM
- TGI [9]: 1.46 µM
- GI50 [10]: 0.63 µM
- TGI [10]: 1.33 µM
- GI50 [11]: 0.451 µM
- TGI [11]: 1.27 µM
- GI50 [12]: 282 nM
- TGI [12]: 1 µM
- GI50 [13]: 1.37 µM
- TGI [13]: 2.54 µM
- GI50 [14]: 0.511 µM
- TGI [14]: 1.22 µM
- GI50 [15]: 0.438 µM
- TGI [15]: 1.1 µM
- GI50 [16]: 0.68 µM
- TGI [16]: 1.89 µM
- GI50 [17]: 0.666 µM
- TGI [17]: 1.53 µM
- GI50 [18]: 0.52 µM
- TGI [18]: 1.43 µM
- GI50 [19]: 516 nM
- TGI [19]: 1610 nM
- GI50 [20]: 0.12 µM
- TGI [20]: 0.485 µM
- GI50 [21]: 0.67 µM
- TGI [21]: 1.52 µM
- GI50 [22]: 1.51 µM
- TGI [22]: 3.78 µM
- GI50 [23]: 0.58 µM
- TGI [23]: 1.26 µM
- GI50 [24]: 0.218 µM
- TGI [24]: 0.812 µM
- GI50 [25]: 164 nM
- TGI [25]: 0.606 µM
- GI50 [26]: 0.6 µM
- TGI [26]: 1.28 µM
- GI50 [27]: 299 nM
- TGI [27]: 2.79 µM
- GI50 [28]: 0.457 µM
- TGI [28]: 1.97 µM
- GI50 [29]: 0.282 µM
- TGI [29]: 0.963 µM
- GI50 [30]: 0.5 µM
- TGI [30]: 1.17 µM
- GI50 [31]: 0.562 µM
- TGI [31]: 1.51 µM
- GI50 [32]: 0.571 µM
- TGI [32]: 1.2 µM
- GI50 [33]: 369 nM
- TGI [33]: 1.07 µM
- GI50 [34]: 1.04 µM
- TGI [34]: 5.09 µM
- GI50 [35]: 221 nM
- TGI [35]: 0.612 µM
- GI50 [36]: 1.09 µM
- TGI [36]: 2.85 µM
- GI50 [37]: 0.192 µM
- TGI [37]: 4.31 µM
- GI50 [38]: 222 nM
- TGI [38]: 724 nM
- GI50 [39]: 110 nM
- TGI [39]: 0.649 µM
- GI50 [40]: 0.419 µM
- TGI [40]: 1.17 µM
- GI50 [41]: 0.242 µM
- TGI [41]: 1.03 µM
- GI50 [42]: 5 nM
- TGI [42]: 0.818 µM
- GI50 [43]: 0.387 µM
- TGI [43]: 1.2 µM
- GI50 [44]: 0.339 µM
- TGI [44]: 0.929 µM
- GI50 [45]: 181 nM
- TGI [45]: 0.841 µM
- GI50 [46]: 460 nM
- TGI [46]: 1260 nM
- GI50 [47]: 451 nM
- TGI [47]: 1.1 µM
- GI50 [48]: 428 nM
- TGI [48]: 1150 nM
- GI50 [49]: 0.473 µM
- TGI [49]: 1.39 µM
- GI50 [50]: 0.93 µM
- TGI [50]: 1.69 µM
- GI50 [51]: 275 nM
- TGI [51]: 1200 nM
- GI50 [52]: 0.005 µM
- TGI [52]: 0.739 µM
- GI50 [53]: 0.379 µM
- TGI [53]: 1.06 µM
- GI50 [54]: 206 nM
- TGI [54]: 1.1 µM
- GI50 [55]: 646 nM
- TGI [55]: 1.34 µM
- GI50 [56]: 0.944 µM
- TGI [56]: 3.2 µM
- GI50 [57]: 101 nM
- TGI [57]: 0.359 µM
- GI50 [58]: 515 nM
- TGI [58]: 2.18 µM

SMILES: CC1(C)CC[C@]23CC[C@]4(C)[C@H](CC[C@@H]5[C@@]6(C)CC[C@H](NCO)C(C)(C)[C@@H]6CC[C@]54C)[C@H]2[C@H]1OC3
- GI50 [1]: 2900 nM
- TGI [1]: 10.9 µM
- GI50 [2]: 16.9 µM
- TGI [2]: 32.5 µM
- GI50 [3]: 3250 nM
- TGI [3]: 11.9 µM
- GI50 [5]: 1520 nM
- TGI [5]: 2950 nM
- GI50 [6]: 15.5 µM
- TGI [6]: 35.7 µM
- GI50 [7]: 5010 nM
- TGI [7]: 17.1 µM
- GI50 [8]: 11.5 µM
- TGI [8]: 23.7 µM
- GI50 [9]: 22.6 µM
- TGI [9]: 38 µM
- GI50 [10]: 16.9 µM
- TGI [10]: 31.5 µM
- GI50 [11]: 14.9 µM
- TGI [11]: 34 µM
- GI50 [12]: 5250 nM
- TGI [12]: 17.4 µM
- GI50 [13]: 14.1 µM
- TGI [13]: 27.1 µM
- GI50 [14]: 15.3 µM
- TGI [14]: 28.6 µM
- GI50 [15]: 12.3 µM
- TGI [15]: 26.5 µM
- GI50 [16]: 11.8 µM
- TGI [16]: 24.1 µM
- GI50 [17]: 16.3 µM
- TGI [17]: 32 µM
- GI50 [18]: 16.3 µM
- TGI [18]: 37.9 µM
- GI50 [19]: 1950 nM
- TGI [19]: 4170 nM
- GI50 [20]: 16 µM
- TGI [20]: 34.3 µM
- GI50 [21]: 15.5 µM
- TGI [21]: 28.9 µM
- GI50 [22]: 15 µM
- TGI [22]: 31.4 µM
- GI50 [23]: 16.8 µM
- TGI [23]: 33.4 µM
- GI50 [24]: 12.9 µM
- TGI [24]: 25.6 µM
- GI50 [25]: 3700 nM
- TGI [25]: 12.9 µM
- GI50 [26]: 14.2 µM
- TGI [26]: 27.2 µM
- GI50 [27]: 3160 nM
- TGI [27]: 16.1 µM
- GI50 [28]: 10.8 µM
- TGI [28]: 31.6 µM
- GI50 [29]: 14.7 µM
- TGI [29]: 28.3 µM
- GI50 [30]: 12 µM
- TGI [30]: 30 µM
- GI50 [31]: 14.3 µM
- TGI [31]: 31 µM
- GI50 [32]: 13.3 µM
- TGI [32]: 28.1 µM
- GI50 [33]: 2240 nM
- TGI [33]: 5.03 µM
- GI50 [34]: 14 µM
- TGI [34]: 30.9 µM
- GI50 [35]: 4390 nM
- TGI [35]: 18.1 µM
- GI50 [36]: 16.7 µM
- TGI [36]: 36.6 µM
- GI50 [37]: 5.93 µM
- TGI [37]: > 100 µM
- GI50 [38]: 1580 nM
- TGI [38]: 4620 nM
- GI50 [39]: 2250 nM
- TGI [39]: 6.4 µM
- GI50 [40]: 7.72 µM
- TGI [40]: 28.9 µM
- GI50 [41]: 7.56 µM
- TGI [41]: 22.6 µM
- GI50 [42]: 2350 nM
- TGI [42]: 6.9 µM
- GI50 [43]: 14.4 µM
- TGI [43]: 28.7 µM
- GI50 [44]: 14.1 µM
- TGI [44]: 32 µM
- GI50 [45]: 4000 nM
- TGI [45]: 17.4 µM
- GI50 [47]: 3770 nM
- TGI [47]: 15.3 µM
- GI50 [48]: 2060 nM
- TGI [48]: 4180 nM
- GI50 [49]: 10.2 µM
- TGI [49]: 23.3 µM
- GI50 [50]: 15.6 µM
- TGI [50]: 28.9 µM
- GI50 [51]: 1700 nM
- TGI [51]: 3700 nM
- GI50 [52]: 17.5 µM
- TGI [52]: 31.3 µM
- GI50 [53]: 6.16 µM
- TGI [53]: 20.4 µM
- GI50 [54]: 741 nM
- TGI [54]: 6.71 µM
- GI50 [55]: 2500 nM
- TGI [55]: 8.16 µM
- GI50 [56]: 15.3 µM
- TGI [56]: 42 µM
- GI50 [57]: 2820 nM
- TGI [57]: 18.3 µM
- GI50 [58]: 3640 nM
- TGI [58]: 18.7 µM
